Laboratory results from PMC4287680, “Targeting GLP-1 receptors for repeated magnetic resonance imaging differentiates graded losses of pancreatic beta cells in mice” (Diabetologia, 2014).

Tested on: pancreas of RIP-DTr mice
Assay: Total pancreas insulin content (acid-ethanol extraction, ELISA) after DT
Format: in vivo
Text: Rat insulin promoter-diphtheria toxin receptor (RIP-DTr) mice were generated as reported. Briefly, the transgene containing an insulin promoter and the diphtheria toxin (DT) receptor coding sequence (RIP-DTr) was targeted to the Hprt locus of the X chromosome. Thus, in this model, DT administration leads to a parallel loss of insulin content and beta cells, which is partially due to the random X inactivation (on average 50%) in hemizygous female mice and nearly complete ablation in male mice.
To evaluate the total insulin content of the pancreas, whole glands were carefully dissected and extracted in acid-ethanol for 24 h, as reported. Pancreas insulin content was evaluated using a rodent insulin ELISA kit (Mercodia, Uppsala, Sweden) according to the manufacturer’s instructions.
Three-to-four-months-old male and female mice of the RIP-DTr strain [33, 36] were tested before and after DT administration. Mice were initially imaged before the injection of a probe to obtain a baseline T2 value (ESM Fig. 2). […] One week after this first imaging session, the same mice were given three intraperitoneal injections of 125 ng DT (injections administered on days 7, 9 and 11; ESM Fig. 2) and were monitored for non-fasting blood glucose by measuring tail-vein blood samples with a glucose meter. […]

Diphtheria toxin [DT]
Pancreas insulin content after DT, female mice (average) (female RIP-DTr mice, up to 3 months after DT administration (3 × 125 ng i.p.)): 63 % of the control levels | Pancreas insulin content after DT, male mice (male RIP-DTr mice after DT administration (3 × 125 ng i.p.)): 0.4 % of control levels
